Data taken from patent US20210379040A1, “COMBINATION TREATMENT OF LIVER DISORDERS” (Terns Pharmaceuticals, Inc., priority 2020, published 2021).
Like-named read-outs stand apart in the source and are kept apart here.

Legend:
[1] = Multiple once daily dose study: plasma PK and safety; assay type: in vivo, human
Protocol: 3 groups of 8 healthy participants were randomized to receive multiple once daily (QD) doses of Compound 2 or matching placebo in a 3:1 ratio for 7 days (1 mg and 4 mg) or 14 days (10 mg). Plasma levels of Compound 2 and PD biomarkers (plasma amine oxidase activity and methylamine levels) were determined at pre-dose and various timepoints post-dose. Safety was assessed for up to 14 days after last dose.

[2] = system: FXR-regulated gene expression in liver and ileum; experiment: Mechanism of action: tissue RNA by RT-qPCR and RNAseq after single oral dose; conditions: C57BL/6 mice, single oral 10 mg/kg, 6 hours
Protocol: The RNA was analyzed by RT-qPCR and RNAseq.
For RNAseq analysis, mRNA was extracted from total liver and sequenced using standard Illumina library preparation and sequencing protocols. Differentially expressed genes (DEG) were determined using RSEM and edgeR software packages and analyzed using Advaita Bio's iPathwayGuide software.

mouse model of NASH = experiment: Mouse model of NASH (high fat diet + CCl4); assay type: in vivo, C57/BL6J mice
Protocol: Hematoxylin & Eosin (H&E) and Sirius Red histological staining of liver tissue was used to quantitate NAFLD activity score (NAS), steatosis, ballooning, inflammation and fibrosis. […] Gene expression of RNA was analyzed by RT-qPCR and RNAseq.
NAS is calculated based upon liver steatosis, inflammation, and ballooning and was determined by analysis of liver tissue histology using H&E stain. […] Hepatocellular ballooning is a form of liver cell injury associated with cell swelling and is also measured by H&E stained liver sections. The ballooning score is calculated as follows: 0-no hepatocyte ballooning; 1-few ballooning hepatocytes; 2-many hepatocytes with prominent ballooning.
Liver fibrosis was quantified by histological analysis of the percentage of Sirius Red-positive liver sections. […] Liver triglycerides were measured from liver tissue using a biochemical analyzer (Hitachi-700).

[3] = Pharmacokinetics assay, rat; assay type: in vivo, Sprague-Dawley (SD) rats; conditions: plasma, Sprague-Dawley Rat
From the text: Results are shown in FIG. 1A (IV administration) and FIG. 1B (oral administration), and in Table 2. […] Smaller Vdss in monkeys is correlated with higher plasma protein binding.

monkey hepatocytes = experiment: In vitro metabolic stability in cryopreserved hepatocytes (monkey); assay type: in vitro ADME; conditions: Cynomolgus Monkey
Protocol: (§1) In vitro half-life values were determined and scaled to predict hepatic clearance (CLpred) and hepatic extraction using the well-stirred liver model with no correction for plasma protein as described in Obach et al., The Prediction of Human Pharmacokinetic Parameters from Preclinical and In Vitro Metabolism Data, J. of Pharmacology and Experimental Therapeutics, vol. 283, no. 1, pp. 46-58 (1997).

[4] = Clinical study, Second Study (7 days daily oral dosing); conditions: for AUC: human, in vivo, po
[5] = PK/PD profile, single oral dose; assay type: in vivo; conditions: cynomolgus monkey, plasma, cynomolgus monkeys; for AUC(0-t): read-out: AUC0-24
Protocol: Pharmacokinetics data is presented in Table 3, and were determined by non-compartmental analysis.

rat hepatocytes = experiment: In vitro metabolic stability in cryopreserved hepatocytes (rat); assay type: in vitro ADME; conditions: Sprague-Dawley Rat
Protocol: as §1

[6] = NASH mice, 10, 30, 100 mg/kg, vs untreated NASH mice

COC1CCN(c2ncc(OC/C(=C/F)CN)cn2)CC1 [Compound 2]
plasma PK exposure increases between dose groups ([1]; Day 1, QD 1, 4, 10 mg): greater than dose proportional | half-life versus dose ([1]; QD 1, 4, 10 mg): increased with dose | accumulation after multiple QD doses ([1]; each dose level): significant accumulation | adverse events or laboratory abnormalities ([1]; healthy participants, QD 1 mg and 4 mg for 7 days or 10 mg for 14 days): No clinically relevant adverse events or laboratory abnormalities were reported | time to steady state ([1]; highest dose cohort (10 mg QD)): 7 days | safety and tolerability ([1]; up to 10 mg QD for 14 days): safe and well tolerated

Cn1cc(C(=O)O)c2ccc(N3CCC(OCc4c(-c5c(Cl)cccc5Cl)noc4C4CC4)CC3)cc21 [Compound 1]
induction of FXR-specific genes, liver versus ileum (RT-qPCR) [2]: preferentially induces FXR-specific genes in the liver | CYP7A1 expression (CPM) Relative to Vehicle (mouse model of NASH; NASH mice liver, 30 mg/kg): 0.02 | CYP8B1 expression (CPM) Relative to Vehicle (mouse model of NASH; NASH mice liver, 30 mg/kg): 0.007 | liver triglycerides (mouse model of NASH; NASH mice, 100 mg/kg): statistically significant reduced triglyceride levels | serum triglyceride concentration (mouse model of NASH; NASH mice, 100 mg/kg): statically significant reduction | serum ALT level (mouse model of NASH; NASH mice, 10, 30, 100 mg/kg): reduced | serum AST level (mouse model of NASH; NASH mice, 10, 30, 100 mg/kg): reduced | ballooning (score) (mouse model of NASH; [6]): significantly reduced | inflammation (score) (mouse model of NASH; [6]): significantly reduced | steatosis (score) (mouse model of NASH; [6]): significantly reduced | serum total cholesterol level (mouse model of NASH; NASH mice, 10, 30, and 100 mg/kg): statistically significant reduction | NAFLD Activity Score (NAS) (mouse model of NASH; NASH mice, 10, 30, or 100 mg/kg daily oral, 28 days, vs untreated NASH mice): significantly lower NAS score | collagen, type 1, alpha 1 expression in the liver (mouse model of NASH; NASH mice, 10, 30, or 100 mg/kg, vs control NASH mice): decreased | Liver fibrosis (Sirius Red-positive area) (mouse model of NASH; NASH mice, 10, 30 or 100 mg/kg, vs untreated NASH control): statistically significant reduced fibrosis | clearance ([3]; iv, intravenously 1 mg/kg): 2.55 L/h/kg | half-life ([3]; iv, intravenously 1 mg/kg, read-out: IV Terminal t1/2 (converted)): 2.45 h | Vd ([3]; iv, intravenously 1 mg/kg, read-out: Vdss): 1.31 L/kg | bioavailability ([3]; po, orally 10 mg/kg): 21% | Hepatic Extraction (monkey hepatocytes): 64.4 ± 0.28% | In vitro Metabolic CLpred (monkey hepatocytes; well-stirred liver model): 1.68 ± 0.01 L/h/kg | Pruritus ([4]; Compound 1 25 mg oral daily for 7 days): No | Pruritus ([4]; Compound 1 75 mg oral daily for 7 days): No | Pruritus ([4]; Compound 1 150 mg oral daily for 7 days): No | AUC ([4]; 25 mg): 0.645 µg·h/mL | AUC ([4]; 75 mg): 1.48 µg·h/mL | AUC ([4]; 150 mg): 2.16 µg·h/mL | Pruritus ([4]; subjects taking the highest doses): no pruritus was observed | Cmax ([5]; oral 0.3 mg/kg): 0.0588 ± 0.0302 µg/mL | Tmax ([5]; oral 0.3 mg/kg): 2.17 ± 1.47 h | AUC(0-t) ([5]; oral 0.3 mg/kg): 0.196 ± 0.064 µg·h/mL | Cmax ([5]; oral 1 mg/kg): 0.257 ± 0.124 µg/mL | Tmax ([5]; oral 1 mg/kg): 1.83 ± 1.17 h | AUC(0-t) ([5]; oral 1 mg/kg): 1 ± 0.419 µg·h/mL | Cmax ([5]; oral 5 mg/kg): 0.709 ± 0.458 µg/mL | Tmax ([5]; oral 5 mg/kg): 2.25 ± 1.47 h | AUC(0-t) ([5]; oral 5 mg/kg): 2.72 ± 1.5 µg·h/mL | Hepatic Extraction (rat hepatocytes): 47.3 ± 0.78% | In vitro Metabolic CLpred (rat hepatocytes; well-stirred liver model): 1.57 ± 0.03 L/h/kg
